The values below come from ChEMBL document CHEMBL3046338, “Solid-Supported Parallel Synthesis of Hydroxybenzylamine Libraries Possessing Antileishmial Activity” (Med Chem Res, 2005).

What all share (type): functional, organism-based
For one assay, the system named is Leishmania donovani. Description: Antileishmanial activity against Leishmania donovani promastigotes after 72 hr by alamar blue assay. (Alamar Blue is a resazurin reagent that responds to reducing activity.)
Assay [1] has as its system Plasmodium falciparum. Description: Antimalarial activity against chloroquine-resistant Plasmodium falciparum W2 IndoChina after 48 hr by parasite LDH assay.
The subject of assay [2] is Plasmodium falciparum. Description: Antimalarial activity against chloroquine-sensitive Plasmodium falciparum D6 SierraLeone after 48 hr by parasite LDH assay.

The EC50 is the concentration giving half of the maximal effect. A higher EC50 goes with a need for much substance. As to `CCOC(=O)CCCN(CCc1ccccc1)Cc1ccc(OC)c(O)c1`, in the assay on Leishmania donovani, a half-maximal response (EC50) required 25.6 µM.

Molecule `COc1ccc(CN(CCCc2ccccc2)CCc2c[nH]c3ccccc23)cc1O` gave an EC50 in the assay on Leishmania donovani of 9.89 µM.

For `COc1ccc(CN(CCc2ccc(OC)c(OC)c2)Cc2ccc(Br)cc2)cc1O`, the figures for the EC50 with Leishmania donovani and in the assay on Plasmodium falciparum [1] were 39.1 µM and 9.79 µM, respectively.

On to `COc1ccc(CN(Cc2ccc(OC)c(O)c2)c2ccc(OC)cc2)cc1`, for which the midpoint of the response with Leishmania donovani, the EC50, lay at 71.2 µM.

In the case of `COc1ccc(CN(CCc2ccccc2)Cc2ccc(C(C)(C)C)cc2)cc1O`, a half-maximal response in the assay with Leishmania donovani (EC50) required 18.6 µM. Compared with the last molecule, the EC50 is about 3.8-fold lower.

Molecule `CCN(CC)CCCC(C)Nc1ccnc2cc(Cl)ccc12` (centres undefined) [CHLOROQUINE] came in with an EC50 with Plasmodium falciparum [1] of 0.31 µM.

`COc1ccc(CN(CCc2ccccc2)Cc2ccc(C)cc2)cc1O` displayed an EC50 in the assay with Leishmania donovani of 19.9 µM.

Turning to `COc1ccc(CN(CCc2c[nH]c3ccccc23)Cc2ccc(Br)cc2)cc1O`, the half-maximal effective concentration (EC50) in the assay with Leishmania donovani was determined as 9.88 µM.

In the assay on Leishmania donovani, `COc1ccc(N(Cc2ccccc2)Cc2ccc(OC)c(O)c2)cc1` showed an EC50 of 109 µM.

In turn, `COc1ccc(CN(CCc2ccccc2)CCc2ccc(Br)cc2)cc1O` gave an EC50 with Leishmania donovani of 59 µM.

For the molecule `CCOC(=O)CCN(CCc1ccc(Br)cc1)Cc1ccc(OC)c(O)c1`, a half-maximal effect in the assay with Leishmania donovani (EC50) was put at 25.2 µM.

Consider `COc1ccc(CN(CCc2ccc(Br)cc2)Cc2ccc(F)cc2)cc1O`, for which the EC50 in the assay on Leishmania donovani was 56.3 µM.

In the assay with Leishmania donovani, `COc1ccc(CN(Cc2ccccc2)c2cccnc2)cc1O` registered an EC50 of 53.1 µM.

As for `N=C(N)c1ccc(OCCCCCOc2ccc(C(=N)N)cc2)cc1` [PENTAMIDINE], in the assay on Leishmania donovani, the EC50 was determined as 1.35 µM.

The molecule `COc1ccc(CN(CCc2ccc(Br)cc2)Cc2ccc(C)cc2)cc1O` came in with an EC50 in the assay with Leishmania donovani of 29.5 µM.

`COc1ccc(CN(Cc2ccc(Br)cc2)c2cc(OC)c(OC)c(OC)c2)cc1O` displayed an EC50 in the assay with Leishmania donovani of 45.1 µM.

Regarding `COc1ccc(CN(Cc2ccc(Br)cc2)c2cccnc2)cc1O`, the EC50 in the assay with Leishmania donovani was 32.6 µM.

For `COc1ccc(N(Cc2ccc(C(C)(C)C)cc2)Cc2ccc(OC)c(O)c2)cc1`, in the assay on Leishmania donovani, the EC50 came out at 61.6 µM.

Turning to `C[C@@H]1[C@H](O)[C@@H](C)/C=C/C=C/C=C/C=C/C=C/C=C/C=C/[C@H](O[C@@H]2O[C@H](C)[C@@H](O)[C@H](N)[C@@H]2O)C[C@@H]2O[C@](O)(C[C@@H](O)C[C@@H](O)[C@H](O)CC[C@@H](O)C[C@@H](O)CC(=O)O[C@H]1C)C[C@H](O)[C@H]2C(=O)O` [AMPHOTERICIN B], the EC50 in the assay with Leishmania donovani worked out at 0.01 µM.

On to `COc1ccc(CN(CCc2ccc(Br)cc2)Cc2ccc(Br)cc2)cc1O`, for which the results for the EC50 in the assay with Leishmania donovani, in the assay with Plasmodium falciparum [2] and with Plasmodium falciparum [1] were 11.9 µM, 6.93 µM and 9.42 µM, respectively.

In the case of `COc1ccc(CN(CCc2ccc(Br)cc2)Cc2ccc(C(C)(C)C)cc2)cc1O`, in the assay on Leishmania donovani, the EC50 came to 47.8 µM.

As for `COc1ccc(CCN(Cc2ccc(Br)cc2)Cc2ccc(OC)c(O)c2)cc1`, the EC50 in the assay on Leishmania donovani came to 21.9 µM; with Plasmodium falciparum [1], 10.4 µM.

For `COc1ccc(CN(CCCc2ccccc2)c2cccnc2)cc1O`, in the assay on Leishmania donovani, the EC50 is 15.8 µM.

For `COc1ccc(CN(Cc2ccccc2)Cc2ccc(Br)cc2)cc1O`, in the assay with Leishmania donovani, it took 31.5 µM to reach a half-maximal effect (EC50). This EC50 lies about 2-fold higher than the previous one.

The molecule `COc1ccc(CN(CCc2ccccc2)Cc2ccc(OC)c(O)c2)cc1` came in with an EC50 in the assay with Leishmania donovani of 18.8 µM.

On to `COc1ccc(CN(CCc2ccccc2)Cc2ccccc2)cc1O`, for which a half-maximal effect with Leishmania donovani (EC50) was put at 37.4 µM. Compared with the last molecule, the EC50 is about 2-fold higher.

In turn, `COc1ccc(N(Cc2ccc(Cl)cc2)Cc2ccc(OC)c(O)c2)cc1` yielded an EC50 in the assay on Leishmania donovani of 59.8 µM. Compared with the last molecule, the EC50 is about 1.6-fold higher.

`COc1ccc(N(Cc2ccc(F)cc2)Cc2ccc(OC)c(O)c2)cc1` gave an EC50 in the assay with Leishmania donovani of 84.4 µM.

Regarding `COc1ccc(CN(Cc2ccc(Br)cc2)c2cccc(Cl)c2)cc1O`, a half-maximal effect in the assay with Leishmania donovani (EC50) was put at 64.7 µM.

Molecule `COc1ccc(CN(CCc2ccc(Br)cc2)Cc2ccc(Cl)cc2)cc1O` returned an EC50 in the assay with Leishmania donovani of 54.2 µM.

In turn, `CCOC(=O)CCCN(CCc1ccc(Br)cc1)Cc1ccc(OC)c(O)c1` showed an EC50 in the assay on Leishmania donovani of 37.8 µM.

As to `COc1ccc(CN(CCc2ccc(Br)cc2)Cc2ccc([N+](=O)[O-])cc2)cc1O`, the EC50 in the assay with Leishmania donovani is 46.7 µM; with Plasmodium falciparum [2], 9.55 µM.

For the molecule `COc1ccc(CN(CCCc2ccccc2)CCc2ccc(Br)cc2)cc1O`, a half-maximal response with Leishmania donovani (EC50) required 28.6 µM.

Consider `COc1ccc(CN(Cc2ccc(Br)cc2)c2ccc(Br)cc2)cc1O`, for which the EC50 in the assay with Leishmania donovani was 33.5 µM.

Molecule `COc1ccc(CN(CCc2ccccc2)Cc2cccc(Cl)c2)cc1O` returned a concentration for a half-maximal effect (EC50) with Leishmania donovani of 70.7 µM.

Consider `CCCCN(CCc1ccc(Br)cc1)Cc1ccc(OC)c(O)c1`, for which the EC50 with Leishmania donovani is 125 µM; in the assay on Plasmodium falciparum [1], 7.14 µM.

Turning to `COc1ccc(CN(CCc2ccccc2)Cc2ccc(Cl)c(Cl)c2)cc1O`, in the assay with Leishmania donovani, the midpoint of the response, the EC50, lay at 50.4 µM.

`COc1ccc(CN(CCc2ccccc2)CCc2ccccc2)cc1O` registered an EC50 in the assay with Leishmania donovani of 20.8 µM.

Turning to `COc1ccc(CN(CCc2ccc(Br)cc2)Cc2ccc(Cl)c(Cl)c2)cc1O`, in the assay on Leishmania donovani, a half-maximal effect (EC50) was put at 48.5 µM.

For the molecule `COc1ccc(CCN(Cc2ccccc2)Cc2ccc(OC)c(O)c2)cc1`, the EC50 with Leishmania donovani stood at 50.3 µM; in the assay on Plasmodium falciparum [2], 12.6 µM; in the assay with Plasmodium falciparum [1], 12.6 µM.

Turning to `COc1ccc(CN(CCc2c[nH]c3ccccc23)Cc2ccccc2)cc1O`, the EC50 in the assay with Leishmania donovani is 9.31 µM.

`COc1ccc(CN(CCc2ccccc2)CCc2c[nH]c3ccccc23)cc1O` had an EC50 in the assay on Leishmania donovani of 16.2 µM. Compared with the last molecule, the EC50 is about 1.7-fold higher.

In turn, `CCOC(=O)CN(CCc1ccc(Br)cc1)Cc1ccc(OC)c(O)c1` gave an EC50 with Leishmania donovani of 26.1 µM.

The molecule `COc1ccc(CN(Cc2ccccc2)c2cc(OC)c(OC)c(OC)c2)cc1O` came in with an EC50 with Leishmania donovani of 29.3 µM.

Take `COc1ccc(CN(CCc2ccc(OC)c(OC)c2)Cc2ccccc2)cc1O`: the EC50 was 54 µM with Leishmania donovani and 11.7 µM in the assay with Plasmodium falciparum [1].

Take `COc1ccc(CN(CCc2ccccc2)CC(=O)OC(C)(C)C)cc1O`: the EC50 in the assay with Leishmania donovani was 33.6 µM.

For `COc1ccc(CN(CCc2ccccc2)Cc2c(F)c(F)c(F)c(F)c2F)cc1O`, a half-maximal effect in the assay on Leishmania donovani (EC50) was put at 48 µM.

In the assay with Leishmania donovani, `COc1ccc(CN(CCc2ccccc2)c2cccnc2)cc1O` had an EC50 of 18.5 µM. Against the preceding molecule, the EC50 is about 2.6-fold lower.

The molecule `COc1ccc(CN(CCCc2ccccc2)CCc2ccccc2)cc1O` registered an EC50 with Leishmania donovani of 14.1 µM.

Molecule `COc1ccc(CN(CCc2ccc(Br)cc2)Cc2ccc(OC)c(O)c2)cc1` yielded an EC50 with Leishmania donovani of 32.9 µM. This EC50 is about 2.3-fold higher than that of the molecule before.

Take `COc1ccc(N(Cc2ccc(Br)cc2)Cc2ccc(OC)c(O)c2)cc1`: the EC50 in the assay with Leishmania donovani was 25.8 µM; in the assay on Plasmodium falciparum [2], 11.2 µM; with Plasmodium falciparum [1] it was 11.2 µM.

`COc1ccc(CN(CCc2ccccc2)Cc2ccc(Cl)cc2Cl)cc1O` showed an EC50 with Leishmania donovani of 60.1 µM.

For the molecule `COc1ccc(CN(CCc2ccc(Br)cc2)Cc2ccc(Cl)cc2Cl)cc1O`, the response in the assay on Leishmania donovani was half-maximal at 48.5 µM (EC50).

With `COc1ccc(CN(CCc2ccccc2)Cc2ccc(Cl)cc2)cc1O`, in the assay on Leishmania donovani, the EC50 turned out to be 68.1 µM.

With `COc1ccc(CN(CCCN2CCOCC2)Cc2ccc(Br)cc2)cc1O`, the results for the EC50 with Leishmania donovani, with Plasmodium falciparum [2] and in the assay with Plasmodium falciparum [1] were 51.2 µM, 10.6 µM and 10.6 µM, respectively.

Consider `COc1ccc(N(Cc2ccc(C)cc2)Cc2ccc(OC)c(O)c2)cc1`, for which, in the assay on Leishmania donovani, the EC50 is 65.1 µM.

`COc1ccc(CN(CCc2ccc(Br)cc2)Cc2c(F)c(F)c(F)c(F)c2F)cc1O` gave an EC50 with Leishmania donovani of 50.4 µM. This EC50 and that of the molecule before are within 1.5-fold of each other.

As to `COc1ccc(CN(Cc2ccccc2)c2cccc(Cl)c2)cc1O`, the results for the EC50 with Leishmania donovani, in the assay on Plasmodium falciparum [2] and in the assay with Plasmodium falciparum [1] were 39.6 µM, 13.5 µM and 13.5 µM, respectively.

In the case of `COc1ccc(CN(CCc2ccc(Br)cc2)Cc2ccccc2)cc1O`, the EC50 with Leishmania donovani amounted to 11.8 µM; in the assay with Plasmodium falciparum [2], 6.58 µM; in the assay with Plasmodium falciparum [1], 11.2 µM.

`COc1ccc(CN(CCc2ccc(Br)cc2)CC(=O)OC(C)(C)C)cc1O` registered an EC50 with Leishmania donovani of 11.1 µM. That is a double-digit micromolar value.

On to `C[C@@H]1CC[C@H]2[C@@H](C)C(=O)O[C@@H]3O[C@@]4(C)CC[C@@H]1[C@]32OO4` [ARTEMISININ], for which the EC50 in the assay with Plasmodium falciparum [2] and with Plasmodium falciparum [1] was 0.02 µM each time.

`COc1ccc(CN(Cc2ccccc2)c2ccc(Br)cc2)cc1O` yielded an EC50 in the assay with Leishmania donovani of 70.3 µM.

With `COc1ccc(CN(CCc2ccc(Br)cc2)Cc2cccc(Cl)c2)cc1O`, the EC50 in the assay with Leishmania donovani was 45.6 µM. Against the preceding molecule, the EC50 is about 1.5-fold lower.

Regarding `COc1ccc(CN(CCCN2CCOCC2)Cc2ccccc2)cc1O`, the EC50 in the assay on Plasmodium falciparum [2] and in the assay on Plasmodium falciparum [1] was 12.8 µM each time.

In turn, `COc1ccc(CN(CCc2ccccc2)Cc2ccc(F)cc2)cc1O` displayed an EC50 in the assay with Leishmania donovani of 62.9 µM.
